# Test results reported in patent US10633397B2, “Substituted polycyclic pyridone derivatives and prodrugs thereof” (priority 2015, dated 2020).
# Key:
# [1] = target: cap-dependent endonuclease (RNP fraction, PB1-PB2-PA complex) (Influenza A virus, UniProt P15659); test: Measurement of cap-dependant endonuclease (CEN) inhibitory activity; assay type: biochemical; details: RNP from A/WSN/33 virus, room temperature 60 minutes; read-out: CEN_IC50
# influenza virus = test: CPE inhibitory effect confirming assay; assay type: cell-based; details: unidentified influenza virus, 72 h, read-out: CPE_EC50
Structure (SMILES),IC50 [1],EC50 (influenza virus)
O=C1c2c(O)c(=O)ccn2N([C@H]2c3ccccc3CSc3ccccc32)[C@@H]2COCCN12 [III-1],10.9 nM,2.1 nM
O=C1c2c(O)c(=O)ccn2N([C@H]2c3ccc(F)cc3CSc3ccccc32)[C@@H]2COCCN12 [III-3],2.22 nM,3.39 nM
O=C1c2c(O)c(=O)ccn2N([C@@H]2c3ccccc3SCc3c(Cl)cccc32)[C@@H]2COCCN12 [III-4],2.81 nM,2.08 nM
O=C1c2c(O)c(=O)ccn2N([C@H]2c3ccccc3CSc3ccccc32)[C@@H]2CSCCN12 [III-5],10.8 nM,4.28 nM
O=C1c2c(O)c(=O)ccn2N([C@H]2c3ccccc3CSc3ccccc32)[C@@H]2CC3(CCN12)OCCO3 [III-7],8.09 nM,11.5 nM
O=C1c2c(O)c(=O)ccn2N([C@H]2c3ccccc3CSc3ccccc32)[C@@H]2CCOCCN12 [III-8],2.81 nM,7.18 nM
O=C1c2c(O)c(=O)ccn2N([C@@H]2c3ccccc3SCc3c2ccc(F)c3F)[C@@H]2CSCCN12 [III-9],2.17 nM,10.9 nM
O=C1c2c(O)c(=O)ccn2N([C@@H]2c3ccccc3SCc3cccc(F)c32)[C@@H]2COCCN12 [III-10],4.05 nM,3.46 nM
O=C1c2c(O)c(=O)ccn2N([C@@H]2c3ccccc3SCc3c(F)cc(F)cc32)[C@@H]2COCCN12 [III-11],13.1 nM,9.98 nM
O=C1c2c(O)c(=O)ccn2N([C@H]2c3cc(F)c(F)cc3CSc3ccccc32)[C@@H]2COCCN12 [III-12],2.18 nM,3.38 nM
O=C1c2c(O)c(=O)ccn2N([C@@H]2c3cccc(F)c3SCc3cccc(F)c32)[C@@H]2COCCN12 [III-13],3.94 nM,4 nM
O=C1c2c(O)c(=O)ccn2N([C@H]2c3cc(F)ccc3CSc3ccccc32)[C@@H]2COCCN12 [III-14],15 nM,15.7 nM
O=C1c2c(O)c(=O)ccn2N([C@H]2c3cc(Cl)ccc3CSc3ccccc32)[C@@H]2COCCN12 [III-15],37.3 nM,16.9 nM
O=C1c2c(O)c(=O)ccn2N([C@@H]2c3cccc(Cl)c3SCc3cccc(F)c32)[C@@H]2COCCN12 [III-16],4.33 nM,10.2 nM
O=C1c2c(O)c(=O)ccn2N([C@@H]2c3ccccc3SCc3c2cccc3C(F)(F)F)[C@@H]2COCCN12 [III-17],3.89 nM,8.14 nM
Cc1cccc2c1[C@H](N1[C@@H]3COCCN3C(=O)c3c(O)c(=O)ccn31)c1ccccc1SC2 [III-18],,3.28 nM
O=C1c2c(O)c(=O)ccn2N([C@@H]2c3ccccc3SCc3c(F)cccc32)[C@@H]2COCCN12 [III-19],,1.43 nM
O=C1c2c(O)c(=O)ccn2N([C@@H]2c3ccccc3SCc3cccc(Cl)c32)[C@@H]2COCCN12 [III-20],,4 nM
O=C1c2c(O)c(=O)ccn2N([C@@H]2c3ccccc3SCc3c2ccc(F)c3F)[C@@H]2CC(F)(F)CCN12 [III-21],4.06 nM,2.7 nM

Structure (SMILES),IC50 [1],EC50 (influenza virus)
C[C@@H]1COC[C@@H]2N1C(=O)c1c(O)c(=O)ccn1N2[C@@H]1c2ccccc2SCc2c1ccc(F)c2F [III-22],3.46 nM,3.07 nM
O=C1c2c(O)c(=O)ccn2N([C@@H]2c3ccccc3SCc3c2ccc(F)c3F)[C@@H]2CC3(CCOCC3)CCN12 [III-23],1.48 nM,0.86 nM
O=C1c2c(O)c(=O)ccn2N([C@@H]2c3ccccc3SCc3cccc(O)c32)[C@@H]2COCCN12 [III-24],13.3 nM,24.1 nM
O=C1c2c(O)c(=O)ccn2N([C@H]2c3ccccc3CSc3ccccc32)[C@@H]2CCCCN12 [III-25],2.96 nM,2.35 nM
O=C1c2c(O)c(=O)ccn2N([C@@H]2c3ccccc3SCc3c2ccc(F)c3F)[C@@H]2C[C@@H](C(F)(F)F)CCN12 [III-26],1.63 nM,3 nM
O=C1c2c(O)c(=O)ccn2N([C@@H]2c3ccccc3SCc3c2cccc3C(F)(F)F)[C@@H]2CCCCN12 [III-27],4.19 nM,3.61 nM
C[C@H]1COC[C@@H]2N1C(=O)c1c(O)c(=O)ccn1N2[C@@H]1c2cccc(F)c2SCc2cccc(F)c21 [III-28],10.7 nM,5.67 nM
O=C1c2c(O)c(=O)ccn2N([C@@H]2c3ccccc3SCc3c2ccc(F)c3F)[C@@H]2CC3(CCN12)COC3 [III-29],0.87 nM,0.66 nM
C[C@H]1COC[C@@H]2N1C(=O)c1c(O)c(=O)ccn1N2[C@H]1c2ccc(F)cc2CSc2ccccc21 [III-30],,3.01 nM
C[C@H]1COC[C@@H]2N1C(=O)c1c(O)c(=O)ccn1N2[C@@H]1c2ccccc2SCc2cccc(F)c21 [III-31],18.5 nM,3.17 nM
C[C@H]1COC[C@@H]2N1C(=O)c1c(O)c(=O)ccn1N2[C@H]1c2ccccc2CSc2ccccc21 [III-32],27.6 nM,7.23 nM
CC1(C)CCN2C(=O)c3c(O)c(=O)ccn3N([C@@H]3c4ccccc4SCc4c3ccc(F)c4F)[C@@H]2C1 [III-33],,2.36 nM
O=C1c2c(O)c(=O)ccn2N([C@@H]2c3ccccc3SCc3c2ccc(F)c3F)[C@@H]2CCC(F)(F)CN12 [III-34],4.69 nM,2.85 nM
CC1(C)CC[C@@H]2N(C1)C(=O)c1c(O)c(=O)ccn1N2[C@@H]1c2ccccc2SCc2c1ccc(F)c2F [III-35],3.86 nM,3 nM
O=C1c2c(O)c(=O)ccn2N([C@@H]2c3ccccc3SCc3c2ccc(F)c3F)[C@@H]2CC3(CCN12)CC3 [III-36],,2.45 nM
O=C1c2c(O)c(=O)ccn2N([C@@H]2c3ccccc3SCc3c2ccc(F)c3F)[C@@H]2CO[C@H](C(F)(F)F)CN12 [III-37],4.24 nM,3.43 nM
O=C1c2c(O)c(=O)ccn2N([C@@H]2c3ccccc3SCc3c2ccc(F)c3F)[C@@H]2C[C@H](C(F)(F)F)CCN12 [III-38],8.26 nM,4.04 nM
CO[C@@H]1CCN2C(=O)c3c(O)c(=O)ccn3N([C@@H]3c4ccccc4SCc4c3ccc(F)c4F)[C@@H]2C1 [III-39],2.75 nM,2.81 nM
C[C@H]1CC[C@@H]2N(C1)C(=O)c1c(O)c(=O)ccn1N2[C@@H]1c2ccccc2SCc2c1ccc(F)c2F [III-40],2.99 nM,2.95 nM

Structure (SMILES),IC50 [1],EC50 (influenza virus)
C[C@@H]1CCN2C(=O)c3c(O)c(=O)ccn3N([C@@H]3c4ccccc4SCc4c3ccc(F)c4F)[C@@H]2C1 [III-41],2.1 nM,2.17 nM
C[C@@H]1CC[C@@H]2N(C1)C(=O)c1c(O)c(=O)ccn1N2[C@@H]1c2ccccc2SCc2c1ccc(F)c2F [III-42],3.93 nM,2.64 nM
O=C1c2c(O)c(=O)ccn2N([C@H]2c3ccc(F)cc3CSc3ccccc32)[C@@H]2C[C@H](C(F)(F)F)CCN12 [III-43],3.9 nM,3.18 nM
O=C1c2c(O)c(=O)ccn2N([C@@H]2c3ccccc3SCc3cccc(F)c32)[C@@H]2CC(F)(F)CCN12 [III-44],3.81 nM,3.68 nM
CC1(C)CCN2C(=O)c3c(O)c(=O)ccn3N([C@@H]3c4ccccc4SCc4cccc(F)c43)[C@@H]2C1 [III-45],1.63 nM,3.07 nM
O=C1c2c(O)c(=O)ccn2N([C@H]2c3ccc(F)cc3CSc3ccccc32)[C@@H]2CC(F)(F)CCN12 [III-46],2.91 nM,3.18 nM
CC1(C)CCN2C(=O)c3c(O)c(=O)ccn3N([C@H]3c4ccc(F)cc4CSc4ccccc43)[C@@H]2C1 [III-47],2.25 nM,2.53 nM
O=C1c2c(O)c(=O)ccn2N([C@@H]2c3ccccc3SCc3cccc(F)c32)[C@@H]2CC3(CCN12)CC3 [III-48],3.49 nM,3.57 nM
C[C@@H]1CCN2C(=O)c3c(O)c(=O)ccn3N([C@@H]3c4ccccc4SCc4cccc(F)c43)[C@@H]2C1 [III-49],6.79 nM,4.17 nM
C[C@@H]1CCN2C(=O)c3c(O)c(=O)ccn3N([C@H]3c4ccc(F)cc4CSc4ccccc43)[C@@H]2C1 [III-50],2.55 nM,4.36 nM
C[C@H]1CN2C(=O)c3c(O)c(=O)ccn3N([C@@H]3c4ccccc4SCc4c3ccc(F)c4F)[C@@H]2CO1 [III-51],2.22 nM,2.58 nM
C[C@H]1CN2C(=O)c3c(O)c(=O)ccn3N([C@H]3c4ccc(F)cc4CSc4ccccc43)[C@@H]2CO1 [III-52],3.62 nM,3.28 nM
O=C1c2c(O)c(=O)ccn2N([C@@H]2c3ccccc3SCc3cccc(F)c32)[C@@H]2CCCCN12 [III-53],2.46 nM,3 nM
O=C1c2c(O)c(=O)ccn2N([C@H]2c3ccc(F)cc3CSc3ccccc32)[C@@H]2CCCCN12 [III-54],,1.18 nM
O=C1c2c(O)c(=O)ccn2N([C@H]2c3ccc(F)cc3CSc3ccccc32)[C@@H]2CC3(CCN12)CC3 [III-55],2.13 nM,3.45 nM
O=C1c2c(O)c(=O)ccn2N(C2c3ccccc3CCc3ccccc32)[C@@H]2COCCN12 [III-56],6.64 nM,4.99 nM
O=C1c2c(O)c(=O)ccn2N([C@H]2c3ccc(F)cc3CSc3ccccc32)[C@@H]2C[C@@H](C(F)(F)F)CCN12 [III-57],4.27 nM,3.47 nM
C[C@@H]1CC[C@@H]2N(C1)C(=O)c1c(O)c(=O)ccn1N2[C@H]1c2ccc(F)cc2CSc2ccccc21 [III-58],2.65 nM,3.13 nM
O=C1c2c(O)c(=O)ccn2N([C@@H]2c3ccccc3SCc3c2ccc(F)c3F)[C@@H]2CCCCN12 [III-59],0.57 nM,3.11 nM
